18 molecules from patent publication US20250144067A1, “PERSONALIZED STARVATION THERAPY FOR CANCER” (Faeth Therapeutics, Inc., priority 2021, published 2025) can be followed below.

Experiment [1] relates to NCI-H292 lung cancer cells. Description: FDA drug screening, complete media vs cholesterol-free media with simvastatin (TABLE 2). The experiment is classed as cell-based, human.
The subject of experiment [2] is NCI-H292 lung cancer cells. Put plainly: FDA drug screening, complete media vs cholesterol-free media without statin (TABLE 1). It counts as cell-based, human.
The mark [3] stands for this setting: NCI-H292 cells, cholesterol-free media with simvastatin 0.04 μM, cell growth value in FDA drug screen.
[4] abbreviates: NCI-H292 cells, complete media, cell growth value in FDA drug screen.
Where [5] appears, read: complete media minus cholesterol-free media + simvastatin, >0 enhanced anti-cancer activity, about 0 neutral, <0 antagonist.
[6] abbreviates: NCI-H292 cells, cholesterol-free media without statin.
Where [7] appears, read: complete vs cholesterol-free media, greater than 0 enhanced anti-cancer activity, about 0 neutral, below 0 antagonists.
Where [8] appears, read: NCI-H292 cells, FDA drug library screen, cholesterol-free media with simvastatin 0.04 μM.
[9] abbreviates: NCI-H292 cells, FDA drug library screen, complete media.
Setting [10] is: Complete minus Cholesterol-free, >0 enhanced anti-cancer activity, about 0 neutral, <0 antagonist.
[11] abbreviates: NCI-H292 cells, cholesterol-free media without statin, FDA drug library screen.
[12] abbreviates: NCI-H292 cells, complete media, FDA drug library screen.
[13] abbreviates: NCI-H292 cells, drug in cholesterol-free media with simvastatin 0.04 μM.
The mark [14] stands for this setting: NCI-H292 cells, drug in complete media.
Where [15] appears, read: complete media vs cholesterol-free media + simvastatin (0.04 μM), >0 enhanced anti-cancer activity, about 0 neutral, <0 antagonist.
Where [16] appears, read: complete vs cholesterol-free media, >0 enhanced anti-cancer activity, about 0 neutral, <0 antagonist.
Where [17] appears, read: NCI-H292 cells, cholesterol-free media with simvastatin 0.04 μM, FDA drug library screen (TABLE 2).
Where [18] appears, read: NCI-H292 cells, complete media, FDA drug library screen (TABLE 2).
Where [19] appears, read: complete media minus cholesterol-free media + simvastatin (0.04 μM), >0 enhanced anti-cancer activity, about 0 neutral, <0 antagonist.
Where [20] appears, read: Complete minus Cholesterol-free, greater than 0 enhanced anti-cancer activity, about 0 neutral, below 0 antagonists.
The mark [21] stands for this setting: NCI-H292 cells in cholesterol-free media without statin.
The mark [22] stands for this setting: NCI-H292 cells in complete media.

Structures can show the parent of a compound that is named as a salt. Where two headings read alike, the source gives them in different places.

As to `CCCCCCCCOc1ccccc1C(=O)Nc1ccc(C(=O)OCC[N+](C)(CC)CC)cc1.[Br-]` [Otilonium (bromide)], in experiment [1], the “Cholesterol-free media + simvastatin (0.04 μM)” value was 0.9764, the “Complete Media” value was 1.024 and the Difference is on record as 0.05. In experiment [2], this molecule had a Cholesterol-free of 1.132, a Complete of 0.8071 and a Difference of −0.32.
As for `CN1C[C@H](CNC(=O)OCc2ccccc2)C[C@@H]2c3cccc4c3c(cn4C)C[C@H]21` [Metergoline], in experiment [1] (setting [3]), the “Cholesterol-free media + simvastatin (0.04 μM)” value is 0.7892. Also, the “Complete Media” value in experiment [1] (setting [4]) worked out at 0.8668. The Difference in experiment [1] (setting [5]) is recorded as 0.08; in experiment [2] (setting [7]) it was −0.43. In experiment [2] (setting [6]), this molecule had a Cholesterol-free of 1.165. Besides, the Complete in experiment [2] (NCI-H292 cells, complete media) is on record as 0.7326.
On to `CCCC(=O)O[C@]1(C(=O)CO)CC[C@H]2[C@@H]3CCC4=CC(=O)CC[C@]4(C)[C@H]3[C@@H](O)C[C@@]21C` [Hydrocortisone 17-butyrate], for which the “Cholesterol-free media + simvastatin (0.04 μM)” value in experiment [1] (setting [8]) turned out to be 0.4747. Moreover, the “Complete Media” value in experiment [1] (setting [9]) was determined as 0.6696. Further, the Difference in experiment [1] (setting [5]) is recorded as 0.19; in experiment [2] (setting [10]), −0.03. Further, the Cholesterol-free in experiment [2] (setting [11]) was determined as 1.162. Further, the Complete in experiment [2] (setting [12]) was 1.133.
Regarding `CCOC(=O)C1=C(C)NC(C)=C(C(=O)OC)C1c1cccc(Cl)c1Cl` (stereo not drawn) [Felodipine], in experiment [1] (setting [13]), the “Cholesterol-free media + simvastatin (0.04 μM)” value is listed as 1.148. Further, the “Complete Media” value in experiment [1] (setting [14]) worked out at 0.9051. Moreover, the Difference in experiment [1] (setting [15]) was −0.24; in experiment [2] (setting [10]), −0.19. The Cholesterol-free in experiment [2] (setting [6]) is recorded as 1.202. Further, the Complete in experiment [2] (NCI-H292 cells, complete media) was 1.01.
As for `Cc1c(C)c2c(c(C)c1O)CCC(C)(CCCC(C)CCCC(C)CCCC(C)C)O2` (racemic) [DL-alpha-Tocopherol], the “Cholesterol-free media + simvastatin (0.04 μM)” value in experiment [1] (setting [8]) came out at 1.155. Moreover, the “Complete Media” value in experiment [1] (setting [9]) is 1.072. Besides, the Difference in experiment [1] (setting [15]) is reported as −0.08; in experiment [2] (setting [16]), 0.66. Also, the Cholesterol-free in experiment [2] (setting [11]) is on record as 0.7949. Further, the Complete in experiment [2] (setting [12]) is listed as 1.459.
For the molecule `COc1ccccc1OCC(O)CN1CCN(CC(=O)Nc2c(C)cccc2C)CC1` (stereo not drawn) [Ranolazine (dihydrochloride)], the “Cholesterol-free media + simvastatin (0.04 μM)” value in experiment [1] (setting [17]) was determined as 0.9671. Also, the “Complete Media” value in experiment [1] (setting [18]) is on record as 0.9017. Moreover, the Difference is −0.07 in experiment [1] (setting [19]) and −0.23 in experiment [2] (setting [10]). The Cholesterol-free in experiment [2] (setting [6]) was 1.148. This molecule yielded a Complete in experiment [2] (NCI-H292 cells, complete media) of 0.9194.
On to `C[C@]12CC[C@@H]3c4ccc(OC(=O)c5ccccc5)cc4CC[C@H]3[C@@H]1CC[C@@H]2O` [Estradiol benzoate], for which, in experiment [1] (setting [13]), the “Cholesterol-free media + simvastatin (0.04 μM)” value was 1.387. Also, in experiment [1] (setting [14]), the “Complete Media” value came out at 1.134. Moreover, the Difference is on record as −0.25 in experiment [1] (setting [15]) and −0.36 in experiment [2] (setting [7]). For the same molecule, the Cholesterol-free in experiment [2] (setting [6]) is recorded as 1.285. The Complete in experiment [2] (NCI-H292 cells, complete media) came out at 0.9221.
As for `CC(=O)O[C@]1(C(C)=O)CC[C@H]2[C@@H]3C=C(Cl)C4=CC(=O)[C@@H]5C[C@@H]5[C@]4(C)[C@H]3CC[C@@]21C` [Cyproterone acetate], the “Cholesterol-free media + simvastatin (0.04 μM)” value in experiment [1] (setting [3]) turned out to be 1.003. The “Complete Media” value in experiment [1] (setting [4]) worked out at 1.068. In addition, the Difference is given as 0.07 in experiment [1] (setting [5]) and −1.74 in experiment [2] (setting [20]). This molecule registered a Cholesterol-free in experiment [2] (setting [21]) of 2.754. This molecule yielded a Complete in experiment [2] (setting [22]) of 1.015.
As for Brimonidine (tartrate), in experiment [1], the “Cholesterol-free media + simvastatin (0.04 μM)” value is listed as 1.704, the “Complete Media” value was 1.309 and the Difference is −0.39. In addition, in experiment [2], the Cholesterol-free came out at 1.093, the Complete worked out at 0.9545 and the Difference is on record as −0.14.
Take `CC1(C)S[C@@H]2[C@H](NC(=O)[C@H](N)c3ccc(O)cc3)C(=O)N2[C@H]1C(=O)O` [Amoxicillin (trihydrate)]: the “Cholesterol-free media + simvastatin (0.04 μM)” value in experiment [1] (setting [8]) stood at 0.7666. Further, in experiment [1] (setting [9]), the “Complete Media” value was 1.02. In addition, the values for the Difference in experiment [1] (setting [5]) and in experiment [2] (setting [16]) were 0.25 and 0.11, respectively. In addition, in experiment [2] (setting [11]), the Cholesterol-free came to 0.8623. In experiment [2] (setting [12]), the Complete is listed as 0.9771.
As for `N#C[C@@H]1C[C@@H]2C[C@@H]2N1C(=O)[C@@H](N)C12CC3CC(CC(O)(C3)C1)C2` [Saxagliptin], in experiment [1] (setting [17]), the “Cholesterol-free media + simvastatin (0.04 μM)” value turned out to be 0.8307. Besides, in experiment [1] (setting [18]), the “Complete Media” value turned out to be 0.816. Also, the Difference in experiment [1] (setting [19]) is on record as −0.01; in experiment [2] (setting [10]), −0.04. The molecule also came in with a Cholesterol-free in experiment [2] (setting [11]) of 0.9657. The molecule also registered a Complete in experiment [2] (setting [12]) of 0.9238.
As for `O=C(NC1CCNCC1)[C@@H]1CC[C@@H]2CN1C(=O)N2OS(=O)(=O)O` [Relebactam], in experiment [1] (setting [3]), the “Cholesterol-free media + simvastatin (0.04 μM)” value is on record as 0.885. The “Complete Media” value in experiment [1] (setting [4]) is on record as 0.9451. The Difference in experiment [1] (setting [5]) is 0.06; in experiment [2] (setting [20]), −0.59. Moreover, the Cholesterol-free in experiment [2] (setting [21]) was found to be 1.438. The Complete in experiment [2] (setting [22]) worked out at 0.845.
In the case of `C[C@]12CCC(=O)C=C1CC[C@@H]1[C@@H]2[C@@H](O)C[C@@]2(C)[C@H]1CC[C@]2(O)C(=O)COC(=O)CCC1CCCC1` [Hydrocortisone cypionate], in experiment [1], the “Cholesterol-free media + simvastatin (0.04 μM)” value is 0.7228, the “Complete Media” value is given as 0.7215 and the Difference was 0.00. In experiment [2], the Cholesterol-free is recorded as 1.099, the Complete was 0.6914 and the Difference is −0.41.
Turning to `CC1=C2[C@H]3OC(=O)[C@@H](C)[C@@H]3CC[C@@]2(C)C=CC1=O` [Santonin], the “Cholesterol-free media + simvastatin (0.04 μM)” value in experiment [1] (setting [13]) worked out at 1.229. Further, the “Complete Media” value in experiment [1] (setting [14]) came out at 1.004. Further, the Difference is reported as −0.23 in experiment [1] (complete media vs cholesterol-free media + simvastatin (0.04 μM), […]) and −0.53 in experiment [2] (Complete minus Cholesterol-free, […]). Moreover, the Cholesterol-free in experiment [2] (setting [21]) is given as 1.389. This molecule also showed a Complete in experiment [2] (setting [22]) of 0.8572.
In the case of `C[C@]12CCC(=O)C=C1CC[C@@H]1[C@@H]2[C@@H](O)C[C@@]2(C)[C@H]1CC[C@]2(O)C(=O)CO` [Hydrocortisone], in experiment [1] (setting [3]), the “Cholesterol-free media + simvastatin (0.04 μM)” value worked out at 0.4287. Besides, the “Complete Media” value in experiment [1] (setting [4]) was 0.4959. Besides, the Difference in experiment [1] (setting [5]) is given as 0.07; in experiment [2] (setting [16]) it was 0.14. In experiment [2] (setting [11]), the Cholesterol-free amounted to 0.8914. In experiment [2] (setting [12]), this molecule came in with a Complete of 1.03.
Turning to Safinamide (mesylate), the “Complete Media” value in experiment [1] (setting [14]) is 0.843. For the same molecule, the Difference in experiment [1] (setting [15]) is −0.20; in experiment [2] (Complete minus Cholesterol-free, greater than 0 enhanced anti-cancer activity, about 0 neutral, below 0 antagonist) it was −0.18.
In the case of `CCCN(CCc1cccs1)[C@H]1CCc2c(O)cccc2C1` [Rotigotine], in experiment [1] (setting [17]), the “Cholesterol-free media + simvastatin (0.04 μM)” value stood at 1.128. The “Complete Media” value in experiment [1] (setting [18]) is 1.07. The Difference was −0.06 in experiment [1] (setting [19]) and 0.07 in experiment [2] (setting [10]). The molecule further had a Cholesterol-free in experiment [2] (setting [11]) of 0.9004. The molecule also came in with a Complete in experiment [2] (setting [12]) of 0.9685.
For `CC(=O)O[C@]1(C(C)=O)CC[C@H]2[C@@H]3C=C(C)C4=CC(=O)CC[C@]4(C)[C@H]3CC[C@@]21C` [Megestrol acetate], the “Cholesterol-free media + simvastatin (0.04 μM)” value in experiment [1] (NCI-H292 cells, FDA library drug in cholesterol-free media with simvastatin 0.04 μM) came out at 1.252. The “Complete Media” value in experiment [1] (NCI-H292 cells, FDA library drug in complete media) was found to be 0.9647. The Difference in experiment [1] (setting [15]) is listed as −0.29; in experiment [2] (setting [10]) it was −0.26. In experiment [2] (setting [6]), this molecule registered a Cholesterol-free of 1.189. This molecule also yielded a Complete in experiment [2] (NCI-H292 cells, complete media) of 0.9289.
